Experimental data reported in US7531555B2, “Compositions and methods for selective inhibition of nicotine acetylcholine receptors” (University of Florida Research Foundation, Inc., priority 2003, dated 2009).
Like-named read-outs stand apart in the source and are kept apart here.

How the values were obtained:
mice = assay: Body temperature, nicotine-induced hypothermia; type: in vivo; conditions: for Body temperature Δ° C. (Mean ± SEM): s.c.
Protocol: Animals. Male ICR mice (20-25 g) obtained from Harlan Laboratories (Indianapolis, Ind.) were used throughout the study. Animals were housed in groups of six and had free access to food and water. Adult, male Long-Evans rats (350-460 g), obtained from Harlan (Dublin, Va.), were individually housed in a temperature-controlled (20-22° C.) environment with a 12-hour light-dark cycle (lights on at 7 a.m.). Rats were maintained within the indicated weight range by restricted post-session feeding and had ad libitum water in their home cages. Rats were drug-naive at the beginning of the study. Animals were housed in an AALAC approved facility and the study was approved by the Institutional Animal Care and Use Committee of Virginia Commonwealth University. Body temperature. Rectal temperature was determined by a thermistor probe (inserted 24 mm) and digital thermometer (Yellow Springs Instrument Co., Yellow Springs, Ohio). […] The difference in rectal temperature before and after treatment was calculated for each mouse. The ambient temperature of the laboratory varied from 21-24° C. from day to day. […] Psychopharmacology (Berl), 1995, 117:67-73). Eight to twelve mice were tested in each treatment group and each animal was tested only once. Statistical analysis. Statistical analysis of all analgesic and in vivo studies was performed using either t-test or analysis of variance (ANOVA) with Tukey's test post hoc test when appropriate.

Rat α3β2 = biological target: T1, Rat α3β2 (Rattus norvegicus, UniProt P04757+P12390); assay: Voltage clamp of Xenopus oocytes expressing rat α3β2 nAChR; type: cell-based
T1 construct: expressed in transfected cells; host or cells: Xenopus laevis oocytes injected with subunit cRNAs; clones from Dr. Jim Boulter (UCLA)
Protocol: (§1) Mature (>9 cm) female Xenopus laevis African frogs (NASCO, Ft. Atkinson, Wis.) were used as a source of oocytes. Prior to surgery, frogs were anesthetized by placing the animal in a 1.5 g/l solution of MS222 (3-aminobenzoic acid ethyl ester) for 30 minutes. Oocytes were removed from an incision made in the abdomen.
(§2) In order to remove the follicular cell layer, harvested oocytes were treated with 1.25 mg/ml collagenase from Worthington Biochemical Corporation (Freehold, N.J.) for 2 hours at room temperature in calcium-free Barth's solution (88 mM NaCl, 10 mM HEPES pH 7.6, 0.33 mM MgSO4, 0.1 mg/ml gentamicin sulfate). Subsequently, stage 5 oocytes were isolated and injected with 50 nl (5-20 ng) each of the appropriate subunit cRNAs. Recordings were made 2 to 15 days after injection.
(§3) Rat neuronal nAChR clones and mouse muscle nAChR cDNA clones were used. The wild-type clones were obtained from Dr. Jim Boulter (UCLA). The rat α6/3 (Dowell et al. J Neurosci, 2003, 23:8445-8452) clone was obtained from Michael McIntosh (University of Utah) and expressed in Xenopus oocytes in combinations with rat β2 and β3. […] The TM2 domain is understood to line the pore of the channel, with alpha helix structure. The 7′ position may actually be directed away from the actual pore lining, but this residue is highly conserved in all of the nAChR. It is valine in all of them except α9 (isoleucine) and β1, where it is alanine. The TM2 mutation in the α6/3 chimera was corrected by using QuickChange (Stratagene) according to their protocols. The corrected α6/3 chimera sequence was confirmed by restriction diagnostics and by automated fluorescent sequencing (University of Florida core facility). The corrected clone was expressed as above in Xenopus oocytes with β2 and β3 and compared to the wild-type α3 co-expressed with β2 and β3.
(§4) After linearization and purification of cloned cDNAs, RNA transcripts were prepared in vitro using the appropriate mMessage mMachine kit from Ambion Inc. (Austin, Tex.).
(§5) Electrophysiology. The majority of experiments were conducted using OpusXpress 6000A (Axon Instruments, Union City Calif.). OpusXpress is an integrated system that provides automated impalement and voltage clamp of up to eight oocytes in parallel. Cells were automatically perfused with bath solution, and agonist solutions were delivered from a 96-well plate. Both the voltage and current electrodes were filled with 3 M KCl. The agonist solutions were applied via disposable tips, which eliminated any possibility of cross-contamination. Drug applications alternated between ACh controls and experimental applications. Flow rates were set at 2 ml/min for experiments with α7 receptors and 4 ml/min for other subtypes. Cells were voltage-clamped at a holding potential of −60 mV. Data were collected at 50 Hz and filtered at 20 Hz. Agonist applications were 12 seconds in duration followed by 181-second washout periods for α7 receptors and 8 seconds with 241-second wash periods for other subtypes. For some experiments, particularly under conditions where residual inhibition precluded making repeated measurements from single cells (see below), manual oocyte recordings were made as previously described (Papke and Papke Br J of Pharmacol, 2002, 137:49-61). In brief, Warner Instruments (Hamden, Conn.) OC-725C oocyte amplifiers were used, and data were acquired with a minidigi or digidata 1200A with pClamp9 software (Axon Instruments). Sampling rates were between 10 and 20 Hz and the data were filtered at 6 Hz. Cells were voltage clamped at a holding potential of −50 mV.
Experimental protocols and data analysis. Each oocyte received two initial control applications of ACh, an experimental drug application (or co-application of ACh and TMPH), and then follow-up control application(s) of ACh. The control ACh concentrations for α1β1γδ, α3β4, α4β2, α3β2, α3β2α5, α3β2β3, α6/3β2β3 α6β4β3 and α7, receptors were 30 μM, 100 μM, 10 μM, 30 μM, 1 μM 100 μM 100 μM 100 μM and 300 μM, respectively. […]

Rat α6β4β3 = biological target: T2, Rat α6β4β3 (Rattus norvegicus, UniProt P12391+P12392+P43143); assay: Voltage clamp of Xenopus oocytes expressing α6β4β3 nAChR; type: cell-based
T2 construct: oocytes expressing the complete wild-type α6 subunits were tested; expressed in transfected cells; host or cells: Xenopus laevis oocytes injected with subunit cRNAs; clones from Dr. Jim Boulter (UCLA)
Protocol: as §1, §2, §3, §4
as §5, with “Cells were voltage clamped at a holding potential of −50 mV.” left out

Rat α6/3β2β3 = biological target: T3, Rat α6/3β2β3 (Rattus norvegicus, UniProt P04757+P12390+P12391+P43143); assay: Voltage clamp of Xenopus oocytes expressing α6/3 chimera with β2 and β3; type: cell-based
T3 construct: evaluation of the effects of the α6 extracellular domain; remainder of rat α3 subunit (transmembrane and intracellular part); expressed in transfected cells; host or cells: Xenopus laevis oocytes injected with subunit cRNAs; α6/3 clone from Michael McIntosh (University of Utah), corrected in house by QuickChange
Protocol: as §1, §2, §3, §4
as §5, with “Cells were voltage clamped at a holding potential of −50 mV.” left out

[1] = inhibition still present after 5-minute wash, read-out: IC50 (recovery)
[2] = decrease in net charge, 100 μM ACh co-applied with TMPH, read-out: IC50 (area)
[3] = decrease in peak current amplitude, 100 μM ACh co-applied with TMPH, read-out: IC50 (peak)

T2 sequence (P43143 31-493): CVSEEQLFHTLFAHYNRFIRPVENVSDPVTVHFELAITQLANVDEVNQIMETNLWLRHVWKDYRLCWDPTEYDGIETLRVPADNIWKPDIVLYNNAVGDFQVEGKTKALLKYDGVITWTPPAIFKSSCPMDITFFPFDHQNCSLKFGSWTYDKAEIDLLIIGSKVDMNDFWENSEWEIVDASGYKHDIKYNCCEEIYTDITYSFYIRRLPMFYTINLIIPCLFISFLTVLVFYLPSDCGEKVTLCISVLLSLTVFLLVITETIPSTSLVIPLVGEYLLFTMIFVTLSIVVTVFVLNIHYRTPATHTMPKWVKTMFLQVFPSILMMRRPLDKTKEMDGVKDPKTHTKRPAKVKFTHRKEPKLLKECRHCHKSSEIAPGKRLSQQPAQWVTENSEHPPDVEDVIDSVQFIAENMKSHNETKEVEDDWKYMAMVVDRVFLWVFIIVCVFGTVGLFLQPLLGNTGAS
T2 sequence (P12392 21-495): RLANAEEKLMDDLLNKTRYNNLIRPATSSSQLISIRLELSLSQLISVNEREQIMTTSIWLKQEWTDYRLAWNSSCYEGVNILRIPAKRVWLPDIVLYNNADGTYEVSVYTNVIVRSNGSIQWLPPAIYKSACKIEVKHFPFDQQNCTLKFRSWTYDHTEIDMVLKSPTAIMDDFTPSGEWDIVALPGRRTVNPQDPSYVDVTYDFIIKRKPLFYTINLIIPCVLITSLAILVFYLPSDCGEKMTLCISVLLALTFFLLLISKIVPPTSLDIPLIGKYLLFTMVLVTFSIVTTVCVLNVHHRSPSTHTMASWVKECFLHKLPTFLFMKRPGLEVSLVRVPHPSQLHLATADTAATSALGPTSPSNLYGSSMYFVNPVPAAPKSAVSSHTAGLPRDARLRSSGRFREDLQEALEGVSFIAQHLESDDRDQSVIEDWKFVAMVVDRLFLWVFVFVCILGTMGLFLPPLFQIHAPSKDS
T2 sequence (P12391 31-464): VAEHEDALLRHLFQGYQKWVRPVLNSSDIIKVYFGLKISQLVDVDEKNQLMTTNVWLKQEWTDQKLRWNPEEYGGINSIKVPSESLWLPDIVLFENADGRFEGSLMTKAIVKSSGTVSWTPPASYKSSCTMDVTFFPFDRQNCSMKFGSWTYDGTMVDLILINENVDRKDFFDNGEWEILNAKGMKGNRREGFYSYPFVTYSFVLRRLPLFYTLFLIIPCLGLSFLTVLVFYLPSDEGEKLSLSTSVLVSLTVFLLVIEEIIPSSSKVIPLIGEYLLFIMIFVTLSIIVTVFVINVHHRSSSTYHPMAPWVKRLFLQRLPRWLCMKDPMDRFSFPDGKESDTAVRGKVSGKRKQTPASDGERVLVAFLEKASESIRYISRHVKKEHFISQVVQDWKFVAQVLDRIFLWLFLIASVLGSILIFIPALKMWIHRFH
T3 sequence (P43143+P04757 fused with the stated changes): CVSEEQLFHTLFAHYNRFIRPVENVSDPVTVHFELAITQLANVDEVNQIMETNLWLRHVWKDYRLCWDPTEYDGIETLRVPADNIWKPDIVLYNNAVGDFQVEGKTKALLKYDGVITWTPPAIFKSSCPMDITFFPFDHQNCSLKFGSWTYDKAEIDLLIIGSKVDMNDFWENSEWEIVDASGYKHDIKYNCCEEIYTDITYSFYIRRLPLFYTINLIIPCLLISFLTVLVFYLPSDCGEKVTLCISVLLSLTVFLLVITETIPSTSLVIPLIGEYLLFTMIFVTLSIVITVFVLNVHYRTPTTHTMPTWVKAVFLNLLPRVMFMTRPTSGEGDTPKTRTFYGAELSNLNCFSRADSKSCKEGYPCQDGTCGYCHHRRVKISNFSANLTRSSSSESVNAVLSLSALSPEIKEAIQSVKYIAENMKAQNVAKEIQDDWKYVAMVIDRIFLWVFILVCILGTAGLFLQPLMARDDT
T3 sequence (P12390 25-500): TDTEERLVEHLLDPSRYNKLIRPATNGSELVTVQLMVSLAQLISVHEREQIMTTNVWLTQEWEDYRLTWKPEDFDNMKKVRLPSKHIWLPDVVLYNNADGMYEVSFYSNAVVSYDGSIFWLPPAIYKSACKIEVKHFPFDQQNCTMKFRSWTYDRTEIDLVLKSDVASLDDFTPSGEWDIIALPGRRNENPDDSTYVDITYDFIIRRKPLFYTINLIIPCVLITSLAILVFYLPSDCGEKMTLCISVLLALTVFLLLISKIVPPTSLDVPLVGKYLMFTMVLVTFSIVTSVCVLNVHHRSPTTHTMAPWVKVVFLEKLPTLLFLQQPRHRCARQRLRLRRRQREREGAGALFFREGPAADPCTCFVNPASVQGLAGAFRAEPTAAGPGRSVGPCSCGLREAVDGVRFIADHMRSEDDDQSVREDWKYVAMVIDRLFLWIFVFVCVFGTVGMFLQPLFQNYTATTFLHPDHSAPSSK
T3 sequence (P12391 31-464): as the sequence (P12391 31-464) above
T1 sequence (P04757 26-499): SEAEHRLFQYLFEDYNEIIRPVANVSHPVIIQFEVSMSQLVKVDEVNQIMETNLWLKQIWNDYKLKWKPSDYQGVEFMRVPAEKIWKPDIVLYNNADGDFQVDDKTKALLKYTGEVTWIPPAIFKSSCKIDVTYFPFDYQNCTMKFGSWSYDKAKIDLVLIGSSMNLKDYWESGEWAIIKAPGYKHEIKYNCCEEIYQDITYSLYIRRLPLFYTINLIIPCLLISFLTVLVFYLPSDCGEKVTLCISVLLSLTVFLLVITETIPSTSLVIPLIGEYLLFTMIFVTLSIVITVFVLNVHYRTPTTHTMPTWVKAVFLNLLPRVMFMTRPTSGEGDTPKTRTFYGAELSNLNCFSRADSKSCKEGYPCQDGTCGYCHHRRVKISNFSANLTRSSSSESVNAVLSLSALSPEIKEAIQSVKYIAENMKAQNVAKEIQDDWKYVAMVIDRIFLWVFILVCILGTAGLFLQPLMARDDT
T1 sequence (P12390 25-500): as the sequence (P12390 25-500) above

`CCCCCCC(=O)OC1CC(C)(C)NC(C)(C)C1` [TMPH, 2,2,6,6-tetramethylpiperidin-4-yl heptanoate] was tested, and the “effect on nicotine-induced hypothermia” value (mice; TMPH 20 mg/kg, nicotine 2.5 mg/kg) was “not blocked”, the “Body temperature Δ° C. (Mean ± SEM)” value (mice; TMPH (20 mg/kg)/Nicotine (1.5 mg/kg)) was −5.2 ± 0.4 °C and the “Body temperature Δ° C. (Mean ± SEM)” value (mice; TMPH (20 mg/kg)/Saline) was −1.0 ± 0.2 °C. For the same molecule, the “blockade of nicotine-induced hypothermia” value (mice; TMPH @ 20 mg/kg) was 0% blockade @ 20, the “effect of TMPH by itself on body temperature” value (mice; s.c. injection, at the indicated doses and times) was “did not have a significant effect” and the “use-independent inhibition, TMPH applied alone” value (Rat α3β2; 1 μM TMPH alone, after the washout period) was “no detectable effect”. For the same molecule, the IC50 (Rat α3β2; decrease in net charge, 30 μM ACh co-applied with TMPH, read-out: IC50 (area)) was 0.44 ± 0.09 µM, the IC50 (Rat α3β2; decrease in peak current amplitude, 30 μM ACh co-applied with TMPH, read-out: IC50 (peak)) was 3.7 ± 1.2 µM and the reversibility of inhibition (Rat α3β2; following a 5-minute wash) was “virtually no recovery”. The IC50 (Rat α3β2; [1]) was 0.23 ± 0.03 µM, the “IC50 net charge/IC50 peak” value (Rat α3β2; ratio) was 0.12 and the “IC50 recovery/IC50 net charge” value (Rat α3β2; ratio) was 0.52. It also gave an IC50 (Rat α6β4β3; [2]) of 18.3 ± 4.9 µM, an IC50 (Rat α6β4β3; [3]) of 11 ± 4.4 µM and an IC50 (Rat α6β4β3; [1]) of 1700 ± 420 µM. The “IC50 net charge/IC50 peak” value (Rat α6β4β3; ratio) was 1.7, the “IC50 recovery/IC50 net charge” value (Rat α6β4β3; ratio) was 93 and the IC50 (Rat α6/3β2β3; [2]) was 1 ± 0.3 µM. For the same molecule, the IC50 (Rat α6/3β2β3; [3]) was 60 ± 20 µM, the IC50 (Rat α6/3β2β3; [1]) was 2.3 ± 0.5 µM and the “IC50 net charge/IC50 peak” value (Rat α6/3β2β3; ratio) was “.017”. For the same molecule, the “IC50 recovery/IC50 net charge” value (Rat α6/3β2β3; ratio) was 2.0.
